Experimental data as given in patent publication US8394789B2, “(Dihydro)pyrrolo[2,1-α]isoquinolines” (MSD Oss B.V., priority 2008, dated 2013).

Columns and labels:
[1] = target: T1, human FSH receptor (Homo sapiens, UniProt P23945); test: hFSHRago (CHO luc): agonistic activity at the human FSH receptor expressed in CHO cells, CRE-luciferase reporter; assay type: cell-based; settings: CHO cells stably transfected with human FSH receptor and CRE/luciferase reporter; 4 hours of incubation
T1 construct: expressed in transfected cells
T1 sequence (P23945 18-695): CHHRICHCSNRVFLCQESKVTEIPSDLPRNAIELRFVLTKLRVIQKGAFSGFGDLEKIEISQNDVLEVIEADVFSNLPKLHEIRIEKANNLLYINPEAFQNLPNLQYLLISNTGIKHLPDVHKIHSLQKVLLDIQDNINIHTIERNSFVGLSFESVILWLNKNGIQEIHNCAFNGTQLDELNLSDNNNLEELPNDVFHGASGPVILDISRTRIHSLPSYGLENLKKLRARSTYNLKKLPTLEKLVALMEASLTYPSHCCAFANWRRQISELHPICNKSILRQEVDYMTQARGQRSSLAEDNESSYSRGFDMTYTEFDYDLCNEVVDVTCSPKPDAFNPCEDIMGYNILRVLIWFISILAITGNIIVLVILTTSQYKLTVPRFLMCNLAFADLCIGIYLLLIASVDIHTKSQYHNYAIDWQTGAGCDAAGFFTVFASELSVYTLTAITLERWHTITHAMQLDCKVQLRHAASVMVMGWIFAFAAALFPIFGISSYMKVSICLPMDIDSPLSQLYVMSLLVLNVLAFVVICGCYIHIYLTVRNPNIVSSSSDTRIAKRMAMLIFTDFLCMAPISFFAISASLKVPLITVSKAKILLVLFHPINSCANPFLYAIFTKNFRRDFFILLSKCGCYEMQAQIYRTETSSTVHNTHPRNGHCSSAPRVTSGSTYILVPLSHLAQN

Structure (SMILES)	EC50 [1]	melting point
COc1cc2c(cc1OC(C)C)-c1c(-c3cccs3)cc(C(=O)N3CCCN(C(C)=O)CCC3)n1CC2 [Example 16, 1-[5-(9-Isopropoxy-8-methoxy-1-thiophen-2-yl-5,6-dihydro-pyrrolo[2,1-α]isoquinoline-3-carbonyl)-[1,5]diazocan-1-yl]-ethanone]	0.005 µM	153 to 155 °C
COc1cc2c(cc1Oc1ncccn1)-c1c(-c3cccs3)cc(C(=O)N(C)C(C)(C)C)n1CC2 [Example 76, N-tert-butyl-8-methoxy-N-methyl-9-(pyrimidin-2-yloxy)-1-(thiophen-2-yl)-5,6-dihydro-pyrrolo[2,1-α]isoquinoline-3-carboxamide]	0.0189 µM	164 to 165 °C
COc1cc2c(cc1OC(C)C)-c1c(-c3cccs3)cc(C(=O)N3CC4CC(C3)c3cccc(=O)n3C4)n1CC2 (stereo not drawn) [Example 18, 3-(9-Isopropoxy-8-methoxy-1-thiophen-2-yl-5,6-dihydro-pyrrolo[2,1-α]isoquinoline-3-carbonyl)-1,2,3,4,5,6-hexahydro-1,5-methano-pyrido[1,2-α][1,5]diazocin-8-one]	0.0373 µM	260 °C
COc1cc2c(cc1OC(C)C)-c1c(-c3cccs3)cc(C(=O)N3C[C@H]4C[C@@H](NC(C)=O)C[C@H]4C3)n1CC2 [Example 25, N-[-2-(9-isopropoxy-8-methoxy-1-thiophen-2-yl-5,6-dihydro-pyrrolo[2,1-α]isoquinoline-3-carbonyl)-octahydro-cyclopenta[c]pyrrol-5-endo-yl]-acetamide]	0.0454 µM	106 to 112 °C
COc1cc2c(cc1CCC(C)(C)O)-c1c(-c3cccs3)cc(C(=O)N(C)C(C)(C)C)n1CC2 [Example 92, 9-(3-Hydroxy-3-methyl-butyl)-8-methoxy-1-thiophen-2-yl-5,6-dihydro-pyrrolo[2,1-α]isoquinoline-3-carboxylic acid tert-butyl-methyl-amide]	0.006 µM	153 to 154 °C
COc1cc2c(cc1OC(C)C)-c1c(-c3cccs3)cc(C(=O)N3CC4CC(C3)C3CCCC(=O)N3C4)n1CC2 (stereo not drawn) [Example 19, 3-(9-Isopropoxy-8-methoxy-1-thiophen-2-yl-5,6-dihydro-pyrrolo[2,1-α]isoquinoline-3-carbonyl)-decahydro-1,5-methano-pyrido[1,2-α][1,5]diazocin-8-one]	0.0294 µM	207 to 208 °C
COc1cc2c(cc1OC(C)C)-c1c(-c3cccs3)cc(C(=O)N3CCCN(C(=O)C4(SC)CCC4)CC3)n1CC2 [Example 9, (9-Isopropoxy-8-methoxy-1-thiophen-2-yl-5,6-dihydro-pyrrolo[2,1-α]isoquinolin-3-yl)-[4-(1-methylsulfanyl-cyclobutanecarbonyl)-[1,4]diazepan-1-yl]-methanone]	0.0164 µM	–
COc1cc2c(cc1OC(C)C)-c1c(-c3cccs3)cc(C(=O)N3CC4CC(CN(C(=O)CSC)C4)C3)n1CC2 [Example 21, 1-[7-(9-Isopropoxy-8-methoxy-1-thiophen-2-yl-5,6-dihydro-pyrrolo[2,1-α]isoquinoline-3-carbonyl)-3,7-diaza-bicyclo[3.3.1]non-3-yl]-2-methylsulfanyl-ethanone]	0.0778 µM	–
COc1cc2c(cc1[N+](=O)[O-])-c1c(-c3cccs3)cc(C(=O)N(C)C(C)(C)C)n1CC2 [Example 94, 8-Methoxy-9-nitro-1-thiophen-2-yl-5,6-dihydro-pyrrolo[2,1-α]isoquinoline-3-carboxylic acid tert-butyl-methyl-amide]	0.003 µM	–
COc1cc2c(cc1OC(C)C)-c1c(-c3cccs3)cc(C(=O)N3CCNC(=O)CC3)n1CC2 [Example 13, 1-(9-Isopropoxy-8-methoxy-1-thiophen-2-yl-5,6-dihydro-pyrrolo[2,1-α]isoquinoline-3-carbonyl)-[1,4]diazepan-5-one]	0.106 µM	–
COc1cc2c(cc1NS(C)(=O)=O)-c1c(-c3cccs3)cc(C(=O)N3CCCC3(C)C)n1CC2 [Example 100, N-[3-(2,2-Dimethyl-pyrrolidine-1-carbonyl)-8-methoxy-1-thiophen-2-yl-5,6-dihydro-pyrrolo[2,1-α]isoquinolin-9-yl]-methanesulfonamide]	0.001 µM	–
CCCCN1CCN(C(=O)c2cc(-c3cccs3)c3n2CCc2cc(OC)c(OC(C)C)cc2-3)CCC1=O [Example 14a, 4-Butyl-1-(9-isopropoxy-8-methoxy-1-thiophen-2-yl-5,6-dihydro-pyrrolo[2,1-α]iso-quinoline-3-carbonyl)-[1,4]diazepan-5-one]	0.0008 µM	–
COc1cc2c(cc1OC(C)C)-c1c(C#N)cc(C(=O)N(C)C(C)(C)C)n1CC2 [Example 37d, 1-Cyano-9-isopropoxy-8-methoxy-5,6-dihydro-pyrrolo[2,1-α]isoquinoline-3-carboxylic acid tert-butyl-methyl-amide]	0.0671 µM	–
COc1cc2c(cc1OCCS(C)(=O)=O)-c1c(-c3cccs3)cc(C(=O)N(C)C(C)(C)C)n1CC2 [Example 72, 9-(2-Methanesulfonyl-ethoxy)-8-methoxy-1-thiophen-2-yl-5,6-dihydro-pyrrolo[2,1-α]isoquinoline-3-carboxylic acid tert-butyl-methyl-amide]	0.0169 µM	–
COc1cc2c(cc1OC(C)C)-c1c(-c3cccs3)cc(C(=O)N3CC=CC3)n1CC2 [Example 15, (2,5-Dihydro-pyrrol-1-yl)-(9-isopropoxy-8-methoxy-1-thiophen-2-yl-5,6-dihydro-pyrrolo[2,1-α]isoquinolin-3-yl)-methanone]	0.249 µM	–
COc1cc2c(cc1C=C(C)C)-c1c(-c3cccs3)cc(C(=O)N(C)C(C)(C)C)n1CC2 [Example 58b, 8-Methoxy-9-(2-methyl-propenyl)-1-thiophen-2-yl-5,6-dihydro-pyrrolo[2,1-α]isoquinoline-3-carboxylic acid tert-butyl-methyl-amide]	0.0007 µM	–
COc1cc2c(cc1OC(C)C)-c1c(-c3cccs3)cc(C(=O)N(C)[C@@H]3CCCN(C(C)=O)C3)n1CC2 [Example 34d, 9-Isopropoxy-8-methoxy-1-thiophen-2-yl-5,6-dihydro-pyrrolo[2,1-α]isoquinoline-3-carboxylic acid ((R)-1-acetyl-piperidin-3-yl)-methyl-amide]	0.496 µM	–
COc1cc2c(cc1OCCCOC1CCCCO1)-c1c(-c3cccs3)cc(C(=O)N(C)C(C)(C)C)n1CC2 (stereo not drawn) [Example 70c, 8-Methoxy-9-[3-(tetrahydro-pyran-2-yloxy)-propoxy]-1-thiophen-2-yl-5,6-dihydro-pyrrolo[2,1-α]isoquinoline-3-carboxylic acid tert-butyl-methyl-amide]	0.155 µM	–
COc1cc2c(cc1OC)-c1c(Br)cc(C(=O)O)n1CC2 [Example 108b]	0.0992 µM	–
COc1cc2c(cc1OCCOC1CCCCO1)-c1c(-c3cccs3)cc(C(=O)N(C)C(C)(C)C)n1CC2 (stereo not drawn) [Example 65c, 8-Methoxy-9-[2-(tetrahydro-pyran-2-yloxy)-ethoxy]-1-thiophen-2-yl-5,6-dihydro-pyrrolo[2,1-α]isoquinoline-3-carboxylic acid tert-butyl-methyl-amide]	0.102 µM	–
CON=Cc1c(-c2cccs2)c2n(c1C(=O)N(C)C(C)(C)C)CCc1cc(OC)c(OC(C)C)cc1-2 [Example 43, 9-Isopropoxy-8-methoxy-2-(methoxyimino-methyl)-1-thiophen-2-yl-5,6-dihydro-pyrrolo[2,1-α]isoquinoline-3-carboxylic acid tert-butyl-methyl-amide]	0.0043 µM	–
COc1cc2c(cc1OC(C)C)-c1c(-c3cccs3)cc(C(=O)N3CCCN(C(=O)C4(OC)CCC4)CC3)n1CC2 [Example 11, (9-Isopropoxy-8-methoxy-1-thiophen-2-yl-5,6-dihydro-pyrrolo[2,1-α]isoquinolin-3-yl)-[4-(1-methoxy-cyclobutanecarbonyl)-[1,4]diazepan-1-yl]-methanone]	0.0054 µM	–
COc1cc2c(cc1NC(=O)CN1CCOCC1)-c1c(-c3cccs3)cc(C(=O)N3CCCC3(C)C)n1CC2 [Example 101, N-[3-(2,2-Dimethyl-pyrrolidine-1-carbonyl)-8-methoxy-1-thiophen-2-yl-5,6-dihydro-pyrrolo[2,1-α]isoquinolin-9-yl]-2-morpholin-4-yl-acetamide]	0.002 µM	–
COCc1cc2c(cc1OC)CCn1c(C(=O)N(C)C(C)(C)C)cc(-c3cccs3)c1-2 [Example 121b, 8-Methoxy-9-methoxymethyl-1-thiophen-2-yl-5,6-dihydro-pyrrolo[2,1-α]isoquinoline-3-carboxylic acid tert-butyl-methyl-amide]	0.0016 µM	–
COCC(=O)Nc1cc2c(cc1OC)CCn1c(C(=O)N(C)C(C)(C)C)cc(-c3cccs3)c1-2 [Example 98, 8-Methoxy-9-(2-methoxy-acetylamino)-1-thiophen-2-yl-5,6-dihydro-pyrrolo[2,1-α]isoquinoline-3-carboxylic acid tert-butyl-methyl-amide]	0.0014 µM	–
COc1cc2c(cc1CCCO)-c1c(-c3cccs3)cc(C(=O)N(C)C(C)(C)C)n1CC2 [Example 91d, 9-(3-hydroxy-propyl)-8-methoxy-1-thiophen-2-yl-5,6-dihydro-pyrrolo[2,1-α]iso-quinoline-3-carboxylic acid tert-butyl-methyl-amide]	0.0004 µM	–
